Measured values from article PMC3809513, “Imidazopyridazines as potent inhibitors of Plasmodium falciparum calcium-dependent protein kinase 1 (PfCDPK1): Preparation and evaluation of pyrazole linked analogues^” (Bioorganic & Medicinal Chemistry Letters, 2013).
Read-outs that look alike come from different tables or passages of the source.

Legend:
[1] = parameters: method as in PMID 23570789; conditions: % remaining after 30 min incubation with mouse liver microsomes; cited from earlier work
P. falciparum [2] = test system: P. falciparum; parameters: method as in PMID 23570789; conditions: reference compound 2; read-out: Pf EC50; cited from earlier work
[3] = parameters: method as in PMID 23570789; conditions: % remaining after 30 min incubation with human liver microsomes; cited from earlier work
PfCDPK1 = PfCDPK1 (Plasmodium falciparum, UniProt P62344); test: PfCDPK1 enzyme inhibition; assay type: biochemical; conditions: for LLE: LLE = pIC50 − m Log D
Chain of PfCDPK1 (P62344 whole entry): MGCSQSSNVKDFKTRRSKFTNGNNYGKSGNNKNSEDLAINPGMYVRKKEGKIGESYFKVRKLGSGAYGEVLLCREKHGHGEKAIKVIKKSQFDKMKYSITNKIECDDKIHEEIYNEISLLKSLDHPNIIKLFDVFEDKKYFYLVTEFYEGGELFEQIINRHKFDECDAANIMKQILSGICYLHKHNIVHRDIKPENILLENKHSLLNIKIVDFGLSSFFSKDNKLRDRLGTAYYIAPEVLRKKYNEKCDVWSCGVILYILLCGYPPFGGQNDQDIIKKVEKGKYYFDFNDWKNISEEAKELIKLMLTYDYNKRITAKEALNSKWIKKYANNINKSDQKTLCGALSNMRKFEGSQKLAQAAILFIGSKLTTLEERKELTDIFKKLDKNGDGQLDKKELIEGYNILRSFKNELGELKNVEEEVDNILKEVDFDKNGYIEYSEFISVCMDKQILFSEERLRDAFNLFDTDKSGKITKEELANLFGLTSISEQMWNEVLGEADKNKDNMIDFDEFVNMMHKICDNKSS

[4] = target: 73-member human kinase panel; test: Kinase selectivity profiling against human kinase panel; assay type: biochemical; conditions: 73-member human kinase panel at 1 μM concentration; green <50%, orange 50–80%, red >80% inhibition in Figure 2
Text: They also display key ADME properties which serve to complement analogues such as 2, where a 6-membered aryl or heteroaryl ring linker had been used (Table 5). As expected, the pyrazole linker has contributed to lowering log D in these new analogues, and perhaps more importantly has promoted a significant increase in ligand lipophilic efficiency (LLE)[22] as compared to compounds such as 2. This parameter is well-known to offer a useful guide to potency and lipophilicity during the progression of chemical series from hits towards leads. In addition, we observed promising kinase selectivity profiles for key examples on screening against a human kinase panel at 1 μM concentration,[23] as shown in Figure 2. The aryl pyrazoles described here thus represent a useful additional possibility for progressing towards alternative early lead compounds with good development characteristics.
[23] Kinase selectivity profiling was carried out by the National Centre for Protein Kinase Profiling at the MRC Protein Phosphorylation Unit (University of Dundee, UK).

[5] = Microsomal turnover, mouse liver microsomes; assay type: in vitro ADME; conditions: % remaining after 30 min, 1 μM compound
Protocol: (§1) Microsomal turnover data was obtained using either human liver microsomes (HLM) or mouse liver microsomes (MLM) obtained from BD Biosciences. The compounds are pre-incubated at 37 °C for 5 minutes with the microsomes and the reaction was initiated by adding an equal volume of NADPH generating solution, also obtained from BD Biosciences. The final compound concentration in the incubation is 1 μM, and the microsomal protein concentration is 0.5 mg/ml for HLM and 0.2 mg/ml for MLM. A sample is taken at t=0 and quenched with 2x volume of ice-cold methanol containing an internal standard reference compound (carbamazepine). The reaction is agitated at 37 °C for 40 minutes (HLM) and 30 minutes (MLM) when a further sample was taken and quenched in an identical fashion. The samples were centrifuged at 10000 rpm for 10 minutes and the supernatant taken for analysis in triplicate by LC-MS/MS (Agilent Technologies G6410 series, triple quadrupole with MM-ESI ion source) using optimised multiple reaction monitoring (MRM) scans and a standard column gradient on an Acquity UPLC BEH C8 1.7μm column, running acetonitrile and water with 0.05% acetic acid as the mobile phase. The % turnover is obtained by calculating the percentage difference of the peak areas, normalised to the internal standard, at t=0 and t=40 (for human) or t=30 (for mouse). Verapamil is used as the standard compound for this assay.

[6] = Microsomal turnover, human liver microsomes; assay type: in vitro ADME; conditions: % remaining after 30 min, 1 μM compound
Protocol: as §1, with “The reaction is agitated at 37 °C for 40 minutes (HLM) and 30 minutes (MLM) when a further sample was taken and quenched in an identical fashion.” left out, “The % turnover is obtained by calculating the percentage difference of the peak areas, normalised to the internal standard, at t=0 and t=40 (for human) or t=30 (for mouse).” left out

P. falciparum [7] = test: P. falciparum parasite growth assay (FACS, hydroethidine); assay type: cell-based, Plasmodium falciparum; conditions: in vitro parasite growth, compounds added 24 h post-invasion, cells recovered 48 h later; for EC50: Plasmodium falciparum, read-out: Pf EC50
Protocol: [12] P. falciparum EC50 values were measured using an in vitro model of malaria parasite growth. Compounds were diluted into 2% DMSO and added to parasites 24 h post-invasion in a 96-well plate and incubated under static conditions. Cells were recovered 48 h later and processed for FACS analysis using hydroethidine to stain parasite DNA. Data was acquired using a Guava easyCyte Plus flow cytometer with ExpressPro software. Growth inhibition was calculated using the following formula: % growth inhibition = (1 − [parasitaemia of culture/parasitaemia of control culture]) × 100.

[8] = PAMPA passive permeability; assay type: in vitro ADME; conditions: 5 hours at room temperature
Protocol: PAMPA assays were carried out using a 96 well BD Biosciences pre-coated PAMPA plate with 0.4 μm polyvinylidene fluoride filter plate, precoated with structured layers of phospholipids. […] The compound solution was placed in the lower ‘Donor’ well of the plate and the upper ‘Acceptor’ well of the plate was filled with PBS:DMSO 98:2 buffer containing no compound following which the plates was assembled then incubated for 5 hours at room temperature. After incubation the Donor and Acceptor wells were sampled into flat UV bottomed plates and a six fold 1:2 dilution series created for each compound starting at the appropriate top concentration for each compound. The UV absorbance for these solutions was read across 230-400 nm at 1 nm intervals using a TECAN Safire II plate reader and a suitable UV wavelength chosen around the UV maximum of each compound. This was used to calculate the concentration in the Donor and Acceptor wells for each compound. The compound permeability Papp (nm s^-1) and % mass retention was then calculated for each compound in accordance with the following equations:
Ceq = [CD(t)* VD+ CA(t)*VA]/(VD+VA)
% mass retention = 1 – [CD(t)*VD + CA(t)*VA]/(C0*VD)]
A = Filter Area, VD = Donor Well Volume, VA = Acceptor Well Volume, t = incubation time (secs), CA(t) = Acceptor concentration at time t, CD(t) = Donor concentration at time t, C0 = Initial Donor concentration
No result was reported for compounds where % mass retention exceeded 50%.

[9] = LogD shake flask (octanol/PBS); assay type: physicochemical; conditions: measured log D
Protocol: LogD measurements were carried out using the shake flask method. Compound was diluted from 10 mM DMSO stock solution into an eppendorf containing equal amounts of octanol and phosphate buffered saline (PBS) to give a final concentration of 100 μM. The tubes were shaken for 12 hours, centrifuged at 10000 rpm for 10 minutes and samples taken from the octanol and PBS layers. The samples from both layers were analysed in triplicate by LC-MS/MS (Agilent Technologies G6410 series, triple quadrupole with MM-ESI ion source) using optimised multiple reaction monitoring (MRM) scans and a standard column gradient on an Acquity UPLC BEH C8 1.7 μm column, running acetonitrile and water with 0.05% Acetic Acid as the mobile phase. The ratios of areas of the peaks were used to calculate the LogD in accordance with the equation: LogD = Log10(Area-TL/Area BL)

IC50 (PfCDPK1)	MLM % rem [5]	HLM % rem [6]	EC50 (P. falciparum [7])	Pf EC50 (P. falciparum [7])	LLE (PfCDPK1)	LE (ligand efficiency) (PfCDPK1; from PfCDPK1 potency)	Papp at 5 h, up to 200 µM [8]	logD at 12 h, 100 µM [9]	SMILES	MLM % rem [1]	EC50 (P. falciparum [2])	HLM % rem [3]	Kinases inhibited [4]
–	–	–	–	–	–	–	–	–	CC(C)CCNc1ccc(-c2cnc3ccc(NC4CCN(C)CC4)nn23)cn1 [Compound 2]	85%	400 nM	63%	–
3610 nM	–	–	–	–	–	–	–	–	Cc1nn(-c2ccccc2)cc1-c1cnc2ccc(NC3CCN(C)CC3)nn12 [Compound 11]	–	–	–	–
43 nM	74%	81%	985 nM	sub-micromolar	4.5	0.37	2.3 ×10⁻⁶ cm/s	1.8	c1ccc(-n2cc(-c3cnc4ccc(NC5CCNCC5)nn34)cn2)cc1 [Compound 12]	–	–	–	PRK2, PKD1, MSK1, MNK1, SmMLCK, CHK1, CHK2, Aurora B, NUAK1, PIM1, GCK, MINK1, MLK1, MLK3, IRAK4, SRC, LCK, YES1, EPH-A2, FGF-R1, HER4, VEG-FR
76 nM	–	–	567 nM	–	–	–	–	3.4	CN1CCC(Nc2ccc3ncc(-c4cnn(-c5ccccc5F)c4)n3n2)CC1 [Compound 16]	–	–	–	–
486 nM	–	–	–	–	–	–	–	2	CN1CCC(Nc2ccc3ncc(-c4cnn(-c5ncc(F)cn5)c4)n3n2)CC1 [Compound 25]	–	–	–	–
31 nM	51%	66%	366 nM	–	–	–	0.05 ×10⁻⁶ cm/s	2.2	CN1CCC(Nc2ccc3ncc(-c4cnn(-c5cnccn5)c4)n3n2)CC1 [Compound 26]	–	–	–	–
–	–	–	–	–	–	–	–	–	Clc1ccc2ncc(Br)n2n1 [Compound 27]	–	–	–	RSK1, PRK2, CHK1, MELK, NUAK 1, PIM1, MST2, GCK, MINK1, MLK1, MLK3, IRAK4, SRC, LCK, CSK, YES1, BTK, EPH-A2, EPH-B3, HER4, VEG-FR
56 nM	84%	80%	262 nM	–	5.3	–	4.3 ×10⁻⁶ cm/s	1.9	N[C@H]1CC[C@H](Nc2ccc3ncc(-c4cnn(-c5ccc(F)cc5)c4)n3n2)CC1 [Compound 29]	–	–	–	–
129 nM	66%	42%	373 nM	–	–	–	10.4 ×10⁻⁶ cm/s	2.8	Fc1ccc(-n2cc(-c3cnc4ccc(N[C@H]5CC[C@H](N6CCCC6)CC5)nn34)cn2)cc1 [Compound 30]	–	–	–	–
184 nM	38%	61%	–	–	–	–	21.4 ×10⁻⁶ cm/s	2.6	CN1CCC(Oc2ccc3ncc(-c4cnn(-c5ccc(F)cc5)c4)n3n2)CC1 [Compound 31]	–	–	–	–
176 nM	56%	80%	3830 nM	–	–	–	21.7 ×10⁻⁶ cm/s	1.4	Fc1ccc(-n2cc(-c3cnn4ccc(C5CCCNC5)nc34)cn2)cc1 (centres unmarked) [Compound 34]	–	–	–	–
378 nM	33%	55%	3540 nM	–	–	–	–	2.5	CN1CCCC(c2ccn3ncc(-c4cnn(-c5ccc(F)cc5)c4)c3n2)C1 (centres unmarked) [Compound 35]	–	–	–	–
854 nM	59%	79%	–	–	–	–	–	1.9	CN1CCC(Nc2ccc3ncc(-c4cnn(-c5ccc(C#N)cc5)c4)n3n2)CC1 [Compound 36]	–	–	–	RSK1, ROCK2, PRK2, MNK1, MNK2, SmMLCK, PHK, CHK1, MARK3, BRSK2, MELK, NUAK1, CK1, CK2, DRYK1A, PIM1, PAK4, MST2, GCK, MINK1, MLK1, MLK3, IRAK4, SRC, YES1, BTK, EPH-A2, HER4, VEG-FR
189 nM	59%	70%	255 nM	–	–	–	–	2.7	CN1CCC(Nc2ccc3ncc(-c4cnn(-c5cccc(C#N)c5)c4)n3n2)CC1 [Compound 37]	–	–	–	–
